# According to patent publication US20180251431A1 (VERTEX PHARMACEUTICALS INCORPORATED, priority 2016, published 2018):
# Tested on: HEK293 cells
# Assay: HEK293 VLCFA-LPC IC50 determination (13C-labeled C26:0 LPC by UHPLC/MS)
# Format: cell-based, human
# Details: Homo sapiens, HEK293, 48 h, average of one or more replicates; 13C-labeled C26:0 LPC, 48 hours; read-out: Average HEK293 IC50
# Outline: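 Suspension HEK293 cells (final 0.5 million/mL after mixing with equal volume) incubated 48 hours with compound plus 13C-acetate (1.0 mg/mL in added media), shaking at 37° C. Lipids extracted with hexane/isopropanol or methanol, C13:0 LPC standard. UHPLC/MS of 13C-labeled C26:0 LPC (638.500/104.100 m/z); IC50 by four-parameter fit.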
row,Compound,IC50
1,"Cc1ncc(C#N)c(-n2ccc(NC(=O)C3(c4ccccc4F)CC3)n2)n1 [Compound 344, N-[1-(5-cyano-2-methyl-pyrimidin-4-yl)pyrazol-3-yl]-1-(2-fluorophenyl)cyclopropanecarboxamide]",> 5000 nM
2,"O=C(Nc1ccn(-c2ccc(Cl)cn2)n1)C1(c2ccccc2F)CC1 [Compound 398, N-(1-(5-chloropyridin-2-yl)-1H-pyrazol-3-yl)-1-(2-fluorophenyl)cyclopropane-1-carboxamide]",> 5000 nM
3,"COc1cncc(C#N)c1-n1ccc(NC(=O)C2(c3ccccc3F)CC2)n1 [Compound 327, N-[1-(3-cyano-5-methoxy-4-pyridyl)pyrazol-3-yl]-1-(2-fluorophenyl)cyclopropanecarboxamide]",> 5000 nM

# Same assay, conditions: Homo sapiens, HEK293, HEK293 cells; average of one or more replicates; read-out: Average HEK293 IC50
row,Compound,IC50
1,"O=C(Cc1ccccc1)Nc1ccn(-c2cccc(C(F)(F)F)c2)n1 [Compound 157, 2-phenyl-N-[1-[3-(trifluoromethyl)phenyl]pyrazol-3-yl]acetamide]",> 5000 nM
2,"COc1ccccc1C1(C(=O)Nc2ccn(-c3ccnc(F)c3)n2)CC1 [Compound 389, N-[1-(2-fluoro-4-pyridyl)pyrazol-3-yl]-1-(2-methoxyphenyl)cyclopropanecarboxamide]",> 5000 nM
3,"Cc1cccc(C2(C(=O)Nc3ccn(-c4ccnc(F)c4)n3)CC2)c1 [Compound 245, N-[1-(2-fluoro-4-pyridyl)pyrazol-3-yl]-1-(m-tolyl)cyclopropanecarboxamide]",260 nM
4,"O=C(Cc1ccccc1F)Nc1ccn(-c2ccc(Cl)cc2)n1 [Compound 133, N-[1-(4-chlorophenyl)pyrazol-3-yl]-2-(2-fluorophenyl)acetamide]",> 5000 nM
5,"COc1ncc(-n2nc(NC(=O)C3(c4ccccc4F)CC3)cc2F)cc1F [Compound 442, N-[5-fluoro-1-(5-fluoro-6-methoxy-3-pyridyl)pyrazol-3-yl]-1-(2-fluorophenyl)cyclopropanecarboxamide]",> 5000 nM
6,"O=C(Nc1ccn(-c2cc(F)cc(F)c2)n1)C1(c2ncccc2F)CC1 [Compound 461, N-[1-(3,5-difluorophenyl)pyrazol-3-yl]-1-(3-fluoro-2-pyridyl)cyclopropanecarboxamide]",76 nM
7,"O=C(Cc1ccccc1F)Nc1ccn(-c2cccc(F)c2)n1 [Compound 126, 2-(2-fluorophenyl)-N-[1-(3-fluorophenyl)pyrazol-3-yl]acetamide]",500 nM
8,"O=C(Nc1ccn(-c2ccnc(F)c2)n1)C1(c2ccc(Cl)cc2Cl)CC1 [Compound 253, 1-(2,4-dichlorophenyl)-N-[1-(2-fluoro-4-pyridyl)pyrazol-3-yl]cyclopropanecarboxamide]",120 nM
9,"CC1(C)CC1(C(=O)Nc1ccn(-c2ccc(F)cc2)n1)c1ncccc1F (stereo not shown) [Compound 513, N-[1-(4-fluorophenyl)pyrazol-3-yl]-1-(3-fluoro-2-pyridyl)-2,2-dimethyl-cyclopropanecarboxamide]",980 nM
10,"COc1cc(-n2ccc(NC(=O)C3(c4ncccc4F)CC3C)n2)ccn1 (stereo not shown) [Compound 510, 1-(3-fluoro-2-pyridyl)-N-[1-(2-methoxy-4-pyridyl)pyrazol-3-yl]-2-methyl-cyclopropanecarboxamide]",670 nM
11,"O=C(Nc1ccn(-c2ncccc2F)n1)C1(c2ccccc2F)CC1 [Compound 95, 1-(2-fluorophenyl)-N-[1-(3-fluoro-2-pyridyl)pyrazol-3-yl]cyclopropanecarboxamide]",390 nM
12,"Cn1cnc(-n2ccc(NC(=O)C3(c4ccccc4F)CC3)n2)n1 [Compound 425, 1-(2-fluorophenyl)-N-[1-(1-methyl-1,2,4-triazol-3-yl)pyrazol-3-yl]cyclopropanecarboxamide]",> 5000 nM
13,"O=C(Nc1ccn(-c2ccc(Cl)c(F)c2)n1)C1(c2ccccc2)CC1 [Compound 196, N-[1-(4-chloro-3-fluoro-phenyl)pyrazol-3-yl]-1-phenyl-cyclopropanecarboxamide]",> 5000 nM
14,"O=C(Nc1ccn(-c2ccc(F)c(F)c2)n1)C1(c2ncccn2)CC1 [Compound 532, N-[1-(3,4-difluorophenyl)pyrazol-3-yl]-1-pyrimidin-2-yl-cyclopropanecarboxamide]",> 5000 nM
15,"O=C(Nc1ccn(-c2ccc(F)cc2)n1)C1(c2ccccc2)CC1 [Compound 184, N-[1-(4-fluorophenyl)pyrazol-3-yl]-1-phenyl-cyclopropanecarboxamide]",280 nM
16,"O=C(Nc1ccn(-c2ccccc2)n1)C1(c2ccc(Cl)cc2)CCCC1 [Compound 79, 1-(4-chlorophenyl)-N-(1-phenylpyrazol-3-yl)cyclopentanecarboxamide]",> 5000 nM
17,"O=C(Nc1ccn(-c2ccc(Cl)cc2)n1)C1(c2ccccc2)CC1 [Compound 132, N-[1-(4-chlorophenyl)pyrazol-3-yl]-1-phenyl-cyclopropanecarboxamide]",> 5000 nM
18,"Cc1ccc(-n2ccc(NC(=O)C3(c4ccccc4F)CC3)n2)cn1 [Compound 120, 1-(2-fluorophenyl)-N-[1-(6-methyl-3-pyridyl)pyrazol-3-yl]cyclopropanecarboxamide]",620 nM
19,"O=C(Cc1ccc(Cl)cc1)Nc1ccn(-c2ccccc2)n1 [Compound 6, 2-(4-chlorophenyl)-N-(1-phenylpyrazol-3-yl)acetamide]",> 5000 nM
20,"O=C(Nc1ccn(-c2ccccc2)n1)C1(c2ccc(Cl)cc2)CC1 [Compound 23, 1-(4-chlorophenyl)-N-(1-phenylpyrazol-3-yl)cyclopropanecarboxamide]",830 nM

row,Compound,IC50
1,"O=C(Nc1ccn(-c2ccccc2)n1)C1(c2ccccn2)CC1 [Compound 225, N-(1-phenylpyrazol-3-yl)-1-(2-pyridyl)cyclopropanecarboxamide]",75 nM
2,"O=C(Nc1ccn(-c2ccncc2F)n1)C1(c2ccccc2F)CC1 [Compound 137, 1-(2-fluorophenyl)-N-[1-(3-fluoro-4-pyridyl)pyrazol-3-yl]cyclopropanecarboxamide]",120 nM
3,"O=C(Cc1ccccc1)Nc1ccn(-c2cc(F)ccc2F)n1 [Compound 160, N-[1-(2,5-difluorophenyl)pyrazol-3-yl]-2-phenyl-acetamide]",> 5000 nM
4,"O=C(Nc1ccn(-c2ccc(Cl)cc2)n1)C1(c2ccccc2F)CC1 [Compound 131, N-[1-(4-chlorophenyl)pyrazol-3-yl]-1-(2-fluorophenyl)cyclopropanecarboxamide]",480 nM
5,"Cn1cc(-n2ccc(NC(=O)C3(c4ccccc4F)CC3)n2)nn1 [Compound 400, 1-(2-fluorophenyl)-N-(1-(1-methyl-1H-1,2,3-triazol-4-yl)-1H-pyrazol-3-yl)cyclopropane-1-carboxamide]",> 5000 nM
6,"Cc1ccc(-n2ccc(NC(=O)Cc3ccccc3F)n2)cn1 [Compound 119, 2-(2-fluorophenyl)-N-[1-(6-methyl-3-pyridyl)pyrazol-3-yl]acetamide]",3500 nM
7,"O=C(Cc1ccccc1F)Nc1ccn(-c2cncnc2)n1 [Compound 15, 2-(2-fluorophenyl)-N-(1-pyrimidin-5-ylpyrazol-3-yl)acetamide]",1000 nM
8,"Cc1ncc(-n2ccc(NC(=O)C3(c4ccccc4F)CC3)n2)cn1 [Compound 241, 1-(2-fluorophenyl)-N-[1-(2-methylpyrimidin-5-yl)pyrazol-3-yl]cyclopropanecarboxamide]",> 5000 nM
9,"O=C(Nc1ccn(-c2cccc(Cl)c2)n1)C1(c2ncccc2F)CC1 [Compound 418, N-(1-(3-chlorophenyl)-1H-pyrazol-3-yl)-1-(3-fluoropyridin-2-yl)cyclopropane-1-carboxamide]",100 nM
10,"Cn1cncc1-n1ccc(NC(=O)C2(c3ccccc3F)CC2)n1 [Compound 426, 1-(2-fluorophenyl)-N-[1-(3-methylimidazol-4-yl)pyrazol-3-yl]cyclopropanecarboxamide]",> 2000 nM
11,"Cc1cc(-n2ccc(NC(=O)Cc3ccc(F)cc3)n2)ccn1 [Compound 111, 2-(4-fluorophenyl)-N-[1-(2-methyl-4-pyridyl)pyrazol-3-yl]acetamide]",> 10000 nM
12,"Cc1cc(-n2ccc(NC(=O)C3(c4ccccc4)CC3)n2)ccn1 [Compound 112, N-[1-(2-methyl-4-pyridyl)pyrazol-3-yl]-1-phenyl-cyclopropanecarboxamide]",910 nM
13,"O=C(Nc1ccn(-c2ccccc2)n1)C1(c2c(F)cccc2F)CC1 [Compound 267, 1-(2,6-difluorophenyl)-N-(1-phenylpyrazol-3-yl)cyclopropanecarboxamide]",13 nM
14,"O=C(Nc1ccn(-c2cncc(F)c2)n1)C1(c2ncc(Cl)cc2F)CC1 [Compound 498, 1-(5-chloro-3-fluoropyridin-2-yl)-N-(1-(5-fluoropyridin-3-yl)-1H-pyrazol-3-yl)cyclopropane-1-carboxamide]",470 nM
15,"O=C(Cc1ccccc1)Nc1ccn(-c2cccc(F)c2)n1 [Compound 127, N-[1-(3-fluorophenyl)pyrazol-3-yl]-2-phenyl-acetamide]",810 nM
16,"O=C(Nc1ccn(-c2cccc(Cl)c2)n1)C1(c2ccccc2F)CC1 [Compound 128, N-[1-(3-chlorophenyl)pyrazol-3-yl]-1-(2-fluorophenyl)cyclopropanecarboxamide]",230 nM
17,"CCC(C)(C(=O)Nc1ccn(-c2ccccc2)n1)c1ccccc1 (stereo not shown) [Compound 300, 2-methyl-2-phenyl-N-(1-phenylpyrazol-3-yl)butanamide]",560 nM
18,"O=C(Cc1ccc(F)cc1)Nc1ccn(-c2cncnc2)n1 [Compound 97, 2-(4-fluorophenyl)-N-(1-pyrimidin-5-ylpyrazol-3-yl)acetamide]",> 10000 nM
19,"O=C(Nc1ccn(-c2cccc(F)c2)n1)C1(c2ccccc2F)CC1 [Compound 124, 1-(2-fluorophenyl)-N-[1-(3-fluorophenyl)pyrazol-3-yl]cyclopropanecarboxamide]",41 nM

# Same assay, conditions: average of one or more replicates; 13C-labeled C26:0 LPC, 48 hours; read-out: Average HEK293 IC50
row,Compound,IC50
1,"O=C(Nc1ccn(-c2ccccc2)n1)C1(c2ccccc2)CC1(F)F (single isomer, unassigned) [Compound 367]",110 nM
